Experimental data as given in patent US20250041429A1, “COMPOUND HAVING BTK PROTEIN DEGRADATION ACTIVITY, AND MEDICAL USES THEREOF” (UBIX THERAPEUTICS, INC., priority 2021, published 2025).

Biological target: T1, BTK protein (Homo sapiens, UniProt Q06187)
T1 construct: endogenous in cells; host or cells: TMD-8 cells
Assay: Measurement of BTK protein degradation ability in TMD-8 cells (Western blotting)
Assay type: cell-based
Details: harvested after 24 hours; for BTK degradation (%) 1 nM: compound 1 nM; for BTK degradation (%) 10 nM: compound 10 nM; for BTK degradation (%) 100 nM: compound 100 nM
Method: TMD-8, RAMOS, or 293T BTK MUT (C481S) cells were treated with the synthesized compounds, and then the amount of BTK protein present in the cells was measured using Western blotting detection. The protocol for the experiment conducted using TMD-8 cells was as follows:
[Culture] TMD-8 cells were resuspended in RPMI1640 MEDIUM (Hyclone, SH30027.01), 10% FBS (Hyclone, SV30207.02), and 1% Penicillin-streptomycin (Welgene, LS 202-02) media, and 1 mL of this suspension was seeded in a 12-well plate at a cell concentration of 1×10^6/mL.
[Compound treatment] The 12-well plate was treated as follows: The 10 mM stock was serially diluted 1/10 with DMSO (3 μL+27 μL DMSO), and cells were treated with compounds at final concentrations of 0.1, 1, 10 μM or 0.0001, 0.001, 0.01, 0.1 μM, and harvested after 24 hours. In the negative control group, DMSO diluted 1/10 was added to the media. (3 μL DMSO+27 μL media)
[Harvest] Each well was pipetted with a 1 mL pipette, collected in a 1.5 mL microtube, and centrifuged (500 g, 5 min, 4° C.). After removing the supernatant, it was washed with PBS and centrifuged again (500 g, 5 min, 4° C.). The supernatant was removed and the pellet was collected.
[Cell lysis and Sample preparation] lysis buffer was prepared as follows: RIPA buffer (Biosesang, RC2038-050-00), 0.5 mM PMSF (SIGMA, P7626) and 1× Protease/Phosphatase Inhibitor (Cell signaling, 5872S) were added at 60-70 μL per well and left on ice for 30 minutes. (Vortexing at 0 and 30 minutes, respectively), followed by sonication (10 seconds pulse, 30 seconds rest, 5 cycles, 70% amplification) and centrifuge (15000 g, 15 min, 4° C.). Only the supernatant was collected and transferred to a new microtube. The samples were diluted by ½ with RIPA buffer in a 96-well plate. 200 μL of the mixture A:B=50:1 of the BCA Protein Assay Kit (iNtRON, 21071) was added each, stayed at 37° C. for 30 minutes, and cooled for 10 minutes. Afterwards, absorbance was measured at 562 nm using BioTek's SYNERGY H1 microplate reader. After making a sample by quantifying the protein using the measured value, it was boiled at 70° C. for 10 minutes. The sample buffer used at this time was a mixture of NuPAGE or Bolt 4× sample buffer (Invitrogen) and each 10× sample reducing agent according to the gel to be used. RIPA buffer was used for protein dilution.
[Western blotting detection method] The same amount of sample was loaded on NuPAGE or Bolt Bis-tris 4-12% gradient gel and run (200 V, 35 minutes). It was transferred to a […] NC membrane using Trans-blot Turbo (BIO-RAD) (1.3 A constant, 25 V limit, 15 minutes). For blocking, skim milk or Intercept Blocking Buffer (LI-COR, 927-60001): 0.1% TBST=1:1 was used at room temperature for 1 hour. Anti BTK Rabbit (1:1,000 in 5% skim milk/0.2% TBST, size: 77 kDa, Cell signaling Technology) was reacted at 4° C. for 16 hours or at room temperature for 2 hours. Anti GAPDH Rabbit (1:10,000 in 5% BSA/0.2% TBST, size: 36 kDa, GENETEX) and Anti β-actin mouse (1:10,000 in 5% BSA/0.2% TBST, RT, size: 43 kDa, GENETEX) were reacted at room temperature for 1 hour or 3 hours. The samples were washed 3 times with 0.5% TBST for 5 minutes each. Secondary antibodies, Anti-Rabbit IgG (1:5,000 in 5% Skim milk/TBST, CST), IRDye® 800CW Goat anti-Rabbit IgG Secondary Antibody (1:10,000 in 5% skim/TBST, RT 45 min), IRDye® 680RD Goat anti-Mouse IgG Secondary Antibody (1:10,000 in 5% skim/TBST, RT 45 min) were added depending on each sample and reacted for 45 minutes on a rocker at room temperature. The samples were washed 5 times with 0.5% TBST for 5 minutes each and detected with LI-COR's Odyssey. At this time, BTK was detected using SuperSignal West Pico PLUS Chemiluminescent Substrate or SuperSignal West femto Maximum Sensitivity Substrate, and house-keeping genes were detected as is.

T1 sequence (Q06187 whole entry): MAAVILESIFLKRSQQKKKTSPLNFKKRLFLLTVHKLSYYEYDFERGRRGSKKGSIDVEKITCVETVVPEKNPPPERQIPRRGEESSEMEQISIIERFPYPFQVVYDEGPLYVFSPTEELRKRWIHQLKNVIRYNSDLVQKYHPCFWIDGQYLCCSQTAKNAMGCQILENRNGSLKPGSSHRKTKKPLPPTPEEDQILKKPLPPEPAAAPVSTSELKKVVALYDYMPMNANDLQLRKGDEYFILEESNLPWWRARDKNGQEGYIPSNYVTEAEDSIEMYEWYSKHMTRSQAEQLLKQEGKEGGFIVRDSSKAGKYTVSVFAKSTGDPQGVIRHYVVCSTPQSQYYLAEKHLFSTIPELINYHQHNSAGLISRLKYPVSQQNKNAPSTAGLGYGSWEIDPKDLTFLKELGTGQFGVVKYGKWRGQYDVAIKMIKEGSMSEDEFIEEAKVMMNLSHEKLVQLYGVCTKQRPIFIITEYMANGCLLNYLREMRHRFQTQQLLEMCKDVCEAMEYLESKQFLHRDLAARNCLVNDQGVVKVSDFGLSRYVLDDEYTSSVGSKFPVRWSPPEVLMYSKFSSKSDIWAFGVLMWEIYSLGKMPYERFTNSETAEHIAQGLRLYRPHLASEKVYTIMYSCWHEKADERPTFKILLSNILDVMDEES

Row | BTK degradation (%) 1 nM [%] | BTK degradation (%) 10 nM [%] | BTK degradation (%) 100 nM [%] | SMILES
1 | 43.0 | 91.5 | 96.5 | Cc1cc(-c2ccnc(Nc3ccc(CN4CCN(CC5CCN(c6cccc(N7CCC(=O)NC7=O)c6)CC5)CC4)cc3)n2)ccc1CNC(=O)c1cn(C(C)(C)C)nn1 [Example 74, 1-(tert-butyl)-N-(4-(2-((4-((4-((1-(3-(2,4-dioxotetrahydropyrimidin-1 (2H)-yl)phenyl)piperidin-4-yl)methyl)piperazin-1-yl)methyl)phenyl)amino)pyrimidin-4-yl)-2-methylbenzyl)-1H-1,2,3-triazole-4-carboxamide]
2 | 81.5 | 100.0 | 100.0 | Cc1cc(-c2ccnc(Nc3ccc(C4CN(CC5CCN(c6ccc7c(c6)C(=O)N(C6CCC(=O)NC6=O)C7=O)CC5)C4)cc3)n2)ccc1CNC(=O)N1CC(OC(C)C)C1 (stereo not shown) [Example 41, N-(4-(2-((4-(1-((1-(2-(2,6-dioxopiperidin-3-yl)-1,3-dioxoisoindolin-5-yl)piperidin-4-yl)methyl)azetidin-3-yl)phenyl)amino)pyrimidin-4-yl)-2-methylbenzyl)-3-isopropoxyazetidine-1-carboxamide]
3 | 22.5 | 93.5 | 99.5 | Cc1cc(-c2ccnc(Nc3ccc(C4CCN(CC5CCN(c6ccc(OC7CCC(=O)NC7=O)cc6)CC5)CC4)cc3)n2)ccc1CNC(=O)N1CC(OC(C)C)C1 (stereo not shown) [Example 47, N-(4-(2-((4-(1-((1-(4-((2,6-dioxopiperidin-3-yl)oxy)phenyl)piperidin-4-yl)methyl)piperidin-4-yl)phenyl)amino)pyrimidin-4-yl)-2-methylbenzyl)-3-isopropoxyazetidine-1-carboxamide]
4 | 43.0 | 92.5 | 98.5 | Cc1cc(-c2ccnc(Nc3ccc(CN4CCN(CC5CCN(c6cccc(NC7CCC(=O)NC7=O)c6)CC5)CC4)cc3)n2)ccc1CNC(=O)N1CC(OC(C)C)C1 (stereo not shown) [Example 64, N-(4-(2-((4-((4-((1-(3-((2,6-dioxopiperidin-3-yl)amino)phenyl)piperidin-4-yl)methyl)piperazin-1-yl)methyl)phenyl)amino)pyrimidin-4-yl)-2-methylbenzyl)-3-isopropoxyazetidine-1-carboxamide]
5 | 83.0 | 100.0 | 100.0 | Cc1cc(-c2ccnc(Nc3ccc(N4CCN(CC5CCN(c6ccc(OC7CCC(=O)NC7=O)cc6)CC5)CC4)cc3)n2)ccc1CNC(=O)N1CC(OC(C)C)C1 (stereo not shown) [Example 43, N-(4-(2-((4-(4-((1-(4-((2,6-dioxopiperidin-3-yl)oxy)phenyl)piperidin-4-yl)methyl)piperazin-1-yl)phenyl)amino)pyrimidin-4-yl)-2-methylbenzyl)-3-isopropoxyazetidine-1-carboxamide]
6 | −9.0 | 63.0 | 98.5 | Cc1cc(-c2ccnc(Nc3ccc(N4CCC(CN5CCC(c6cccc(NC7CCC(=O)NC7=O)c6)CC5)CC4)cc3)n2)ccc1CNC(=O)N1CC(OC(C)C)C1 (stereo not shown) [Example 122, N-(4-(2-((4-(4-((4-(3-((2,6-dioxopiperidin-3-yl)amino)phenyl)piperidin-1-yl)methyl)piperidin-1-yl)phenyl)amino)pyrimidin-4-yl)-2-methylbenzyl)-3-isopropoxyazetidine-1-carboxamide]
7 | – | 6.5 | 20 | Cc1c(NC(=O)c2cnn(C(C)(C)C)c2)cc(F)cc1-c1ccnc(Nc2ccc(N3CCN(CC4CCN(c5ccc6c(c5)C(=O)N(C5CCC(=O)NC5=O)C6=O)CC4)CC3)cc2)n1 (stereo not shown) [Example 24, 1-(tert-butyl)-N-(3-(2-((4-(4-((1-(2-(2,6-dioxopiperidin-3-yl)-1,3-dioxoisoindolin-5-yl)piperidin-4-yl)methyl)piperazin-1-yl)phenyl)amino)pyrimidin-4-yl)-5-fluoro-2-methylphenyl)-1H-pyrazole-4-carboxamide]
8 | 65.5 | 93.5 | 98.5 | Cc1cc(-c2ccnc(Nc3cnn(C4CCN(CC5CCN(c6ccc7c(c6)C(=O)N(C6CCC(=O)NC6=O)C7=O)CC5)CC4)c3)n2)ccc1CNC(=O)c1cn(C(C)(C)C)nn1 (stereo not shown) [Example 39, 1-(tert-butyl)-N-(4-(2-((1-(1-((1-(2-(2,6-dioxopiperidin-3-yl)-1,3-dioxoisoindolin-5-yl)piperidin-4-yl)methyl)piperidin-4-yl)-1H-pyrazol-4-yl)amino)pyrimidin-4-yl)-2-methylbenzyl)-1H-1,2,3-triazole-4-carboxamide]
9 | 56 | 94.5 | 98.5 | Cc1cc(-c2ccnc(Nc3ccc(N4CCN(CC5CCN(c6ccc7c(n6)CN(C6CCC(=O)NC6=O)C7=O)CC5)CC4)cc3)n2)ccc1CNC(=O)N1CC(OC(C)C)C1 (stereo not shown) [Example 10, N-(4-(2-((4-(4-((1-(6-(2,6-dioxopiperidin-3-yl)-5-oxo-6,7-dihydro-5H-pyrrolo[3,4-b]pyridin-2-yl)piperidin-4-yl)methyl)piperazin-1-yl)phenyl)amino)pyrimidin-4-yl)-2-methylbenzyl)-3-isopropoxyazetidine-1-carboxamide]
10 | 43.0 | 97.0 | 100.0 | Cc1cc(-c2ccnc(Nc3ccc(N4CCC(CN5CCN(c6ccc(NC7CCC(=O)NC7=O)cc6)CC5)CC4)cc3)n2)ccc1CNC(=O)N1CC(OC(C)C)C1 (stereo not shown) [Example 121, N-(4-(2-((4-(4-((4-(4-((2,6-dioxopiperidin-3-yl)amino)phenyl)piperazin-1-yl)methyl)piperidin-1-yl)phenyl)amino)pyrimidin-4-yl)-2-methylbenzyl)-3-isopropoxyazetidine-1-carboxamide]
11 | 44 | 93.5 | 99.5 | Cc1cc(-c2ccnc(Nc3ccc(N4CCC(CN5CCN(c6ccc7c(c6)C(=O)N(C6CCC(=O)NC6=O)C7=O)CC5)CC4)cc3)n2)ccc1CNC(=O)N1CC(OC(C)C)C1 (stereo not shown) [Example 111, N-(4-(2-((4-(4-((4-(2-(2,6-dioxopiperidin-3-yl)-1,3-dioxoisoindolin-5-yl)piperazin-1-yl)methyl)piperidin-1-yl)phenyl)amino)pyrimidin-4-yl)-2-methylbenzyl)-3-isopropoxyazetidine-1-carboxamide]
12 | – | 76.5 | 96.5 | Cc1cc(-c2ccnc(Nc3ccc(N4CCN(CC5CCN(c6ccc7c(c6)C(=O)N(C6CCC(=O)NC6=O)C7=O)CC5)CC4)cc3)n2)ccc1CNC(=O)c1cn(C(C)(C)C)nn1 (stereo not shown) [Example 9, 1-(tert-butyl)-N-(4-(2-((4-(4-((1-(2-(2,6-dioxopiperidin-3-yl)-1,3-dioxoisoindolin-5-yl)piperidin-4-yl)methyl)piperazin-1-yl)phenyl)amino)pyrimidin-4-yl)-2-methylbenzyl)-1H-1,2,3-triazole-4-carboxamide]
